Measured values: patent US8440628B2, “Medical compositions containing ghrelin” (Daiichi Sankyo Company, Limited, priority 2002, dated 2013)

Key:
Format in all cases: physicochemical
[1] = Stability of human ghrelin in pH-adjusted purified water at 25°C (Example 7); settings: for Peak area ratio to total peak area: 25±2°C
Procedure: Human ghrelin was dissolved in the purified water with about 0.03 μmol/mL (0.1 mg/mL). […] This solution was divided into quarter, and one portion was kept alone and the pH values of the remaining three portions were adjusted to pH 1.8 (with 17 mM of hydrochloric acid), pH 3.9 (with 0.20 mM of hydrochloric acid) and pH 7.8 (with 0.24 mM of sodium hydroxide) respectively, by adding along with hydrochloric acid or sodium hydroxide aqueous solution.

[2] = Stability of human ghrelin in Britton-Robinson buffer solutions of various pH at 40°C (Example 3); settings: pH range of 2 to 7, stored at 40° C. for 1 day (FIG. 3)
Procedure: Human ghrelin, which is one of the ghrelins, was dissolved in the Britton-Robinson buffer solutions which is adjusted by combining 0.04M phosphoric acid-acetic acid-boric acid aqueous solution and 0.2M sodium hydrate aqueous solution in appropriate ratio, having pH of 2.1, 3.1, 4.0, 5.0, 6.0, 7.0 and 7.9 to obtain an aqueous solution containing human ghrelin in the concentration of about 0.15 μmol/mL (0.5 mg/mL). The obtained solution was filled in brownish glass ampoules and the ampoules were sealed with fire. For the calculation of kinetic constant, the certain degrees of degradation products have to be occurred in the aqueous solution of the ghrelins, and therefore, the ampoules were stored at 40±1° C., which was severe conditions for storage. The concentration (residual ratio) of human ghrelin was conducted by HPLC with time. At the same time, the pH of the solution was measured and it was confirmed that there was no significant changes of pH in solution.
The kinetic constants in each pH solution were calculated from the sequential change of the residual ratio, and the results were shown in FIG. 2.

[3] = Stability of human ghrelin in 0.1M HCl and Mcllvain buffer solutions of various pH at 25°C (Example 2, HPLC peak area ratio)
Procedure: Human ghrelin was dissolved in the following aqueous solutions in the concentration of about 0.15 μmol/mL (0.5 mg/mL).
0.1M HCl aqueous solution (pH: 1.1)
The pH was adjusted with 0.1M citric aqueous acid and 0.2M dibasic sodium phosphate aqueous solution.
Each solution were stored at 25±2° C. for 8, 24, 48 and 72 hours respectively, and the obtained solutions were detected by HPLC analysis in comparison to the solutions before storage. […] No significant changes of pH in solution before storage and after storage were observed.

[3-Dehydroalanine]human ghrelin [Dha compound]
Production of the degradation product in human ghrelin solution ([1]; aqueous solution of pH 3.9 and 4.7, 25±2°C, up to 3 days): inhibited
Peak area ratio to total peak area ([1]; human ghrelin 0.1 mg/mL in purified water adjusted to pH 1.8 with hydrochloric acid, 1 day after): 0.31%
Peak area ratio to total peak area ([1]; human ghrelin 0.1 mg/mL in purified water adjusted to pH 1.8 with hydrochloric acid, before storage): 0.20%
Peak area ratio to total peak area ([1]; human ghrelin 0.1 mg/mL in purified water adjusted to pH 3.9 with hydrochloric acid, 1 day after): 0.20%
Peak area ratio to total peak area ([1]; human ghrelin 0.1 mg/mL in purified water adjusted to pH 3.9 with hydrochloric acid, 3 days after): 0.19%
Peak area ratio to total peak area ([1]; human ghrelin 0.1 mg/mL in purified water adjusted to pH 3.9 with hydrochloric acid, before storage): 0.20%
Peak area ratio to total peak area ([1]; human ghrelin 0.1 mg/mL in purified water adjusted to pH 7.8 with sodium hydroxide, 1 day after): 0.86%
Peak area ratio to total peak area ([1]; human ghrelin 0.1 mg/mL in purified water adjusted to pH 7.8 with sodium hydroxide, before storage): 0.24%
Peak area ratio to total peak area ([1]; human ghrelin 0.1 mg/mL in purified water, pH 4.7 (not adjusted), 1 day after): 0.21%
Peak area ratio to total peak area ([1]; human ghrelin 0.1 mg/mL in purified water, pH 4.7 (not adjusted), 3 days after): 0.21%
Peak area ratio to total peak area ([1]; human ghrelin 0.1 mg/mL in purified water, pH 4.7 (not adjusted), before storage): 0.20%
Production of the degradation product in human ghrelin solution [2]: inhibited
Production of the degradation product in human ghrelin solution ([3]; Mcllvain buffer, pH range of 3.0 to 5.0, 25±2°C, up to 72 hours): inhibited
Peak area ratio to total peak area ([3]; human ghrelin 0.5 mg/mL in 0.1M HCl aqueous solution, pH 1, 25±2°C, 8 hr. after): 0.15%
Peak area ratio to total peak area ([3]; human ghrelin 0.5 mg/mL in 0.1M HCl aqueous solution, pH 1, 25±2°C, 24 hr. after): 0.09%
Peak area ratio to total peak area ([3]; human ghrelin 0.5 mg/mL in 0.1M HCl aqueous solution, pH 1, 25±2°C, 48 hr. after): 0.04%
Peak area ratio to total peak area ([3]; human ghrelin 0.5 mg/mL in 0.1M HCl aqueous solution, pH 1, 25±2°C, 72 hr. after): 0.00%
Peak area ratio to total peak area ([3]; human ghrelin 0.5 mg/mL in 0.1M HCl aqueous solution, pH 1, 25±2°C, before storage): 0.21%
Peak area ratio to total peak area ([3]; human ghrelin 0.5 mg/mL in Mcllvain buffer, pH 2, 25±2°C, 8 hr. after): 0.20%
Peak area ratio to total peak area ([3]; human ghrelin 0.5 mg/mL in Mcllvain buffer, pH 2, 25±2°C, 24 hr. after): 0.23%
Peak area ratio to total peak area ([3]; human ghrelin 0.5 mg/mL in Mcllvain buffer, pH 2, 25±2°C, 48 hr. after): 0.24%
Peak area ratio to total peak area ([3]; human ghrelin 0.5 mg/mL in Mcllvain buffer, pH 2, 25±2°C, 72 hr. after): 0.25%
Peak area ratio to total peak area ([3]; human ghrelin 0.5 mg/mL in Mcllvain buffer, pH 2, 25±2°C, before storage): 0.20%
Peak area ratio to total peak area ([3]; human ghrelin 0.5 mg/mL in Mcllvain buffer, pH 3, 25±2°C, 8 hr. after): 0.20%
Peak area ratio to total peak area ([3]; human ghrelin 0.5 mg/mL in Mcllvain buffer, pH 3, 25±2°C, 24 hr. after): 0.23%
Peak area ratio to total peak area ([3]; human ghrelin 0.5 mg/mL in Mcllvain buffer, pH 3, 25±2°C, 48 hr. after): 0.24%
Peak area ratio to total peak area ([3]; human ghrelin 0.5 mg/mL in Mcllvain buffer, pH 3, 25±2°C, 72 hr. after): 0.25%
Peak area ratio to total peak area ([3]; human ghrelin 0.5 mg/mL in Mcllvain buffer, pH 3, 25±2°C, before storage): 0.20%
Peak area ratio to total peak area ([3]; human ghrelin 0.5 mg/mL in Mcllvain buffer, pH 4, 25±2°C, 8 hr. after): 0.20%
Peak area ratio to total peak area ([3]; human ghrelin 0.5 mg/mL in Mcllvain buffer, pH 4, 25±2°C, 24 hr. after): 0.21%
Peak area ratio to total peak area ([3]; human ghrelin 0.5 mg/mL in Mcllvain buffer, pH 4, 25±2°C, 48 hr. after): 0.22%
Peak area ratio to total peak area ([3]; human ghrelin 0.5 mg/mL in Mcllvain buffer, pH 4, 25±2°C, 72 hr. after): 0.23%
Peak area ratio to total peak area ([3]; human ghrelin 0.5 mg/mL in Mcllvain buffer, pH 4, 25±2°C, before storage): 0.20%
Peak area ratio to total peak area ([3]; human ghrelin 0.5 mg/mL in Mcllvain buffer, pH 5, 25±2°C, 8 hr. after): 0.21%
Peak area ratio to total peak area ([3]; human ghrelin 0.5 mg/mL in Mcllvain buffer, pH 5, 25±2°C, 24 hr. after): 0.21%
Peak area ratio to total peak area ([3]; human ghrelin 0.5 mg/mL in Mcllvain buffer, pH 5, 25±2°C, 48 hr. after): 0.23%
Peak area ratio to total peak area ([3]; human ghrelin 0.5 mg/mL in Mcllvain buffer, pH 5, 25±2°C, 72 hr. after): 0.24%
Peak area ratio to total peak area ([3]; human ghrelin 0.5 mg/mL in Mcllvain buffer, pH 5, 25±2°C, before storage): 0.21%
Peak area ratio to total peak area ([3]; human ghrelin 0.5 mg/mL in Mcllvain buffer, pH 6, 25±2°C, 8 hr. after): 0.21%
Peak area ratio to total peak area ([3]; human ghrelin 0.5 mg/mL in Mcllvain buffer, pH 6, 25±2°C, 24 hr. after): 0.26%
Peak area ratio to total peak area ([3]; human ghrelin 0.5 mg/mL in Mcllvain buffer, pH 6, 25±2°C, 48 hr. after): 0.31%
Peak area ratio to total peak area ([3]; human ghrelin 0.5 mg/mL in Mcllvain buffer, pH 6, 25±2°C, 72 hr. after): 0.35%
Peak area ratio to total peak area ([3]; human ghrelin 0.5 mg/mL in Mcllvain buffer, pH 6, 25±2°C, before storage): 0.20%
Peak area ratio to total peak area ([3]; human ghrelin 0.5 mg/mL in Mcllvain buffer, pH 7, 25±2°C, 8 hr. after): 0.25%
Peak area ratio to total peak area ([3]; human ghrelin 0.5 mg/mL in Mcllvain buffer, pH 7, 25±2°C, 24 hr. after): 0.43%
Peak area ratio to total peak area ([3]; human ghrelin 0.5 mg/mL in Mcllvain buffer, pH 7, 25±2°C, 48 hr. after): 0.61%
Peak area ratio to total peak area ([3]; human ghrelin 0.5 mg/mL in Mcllvain buffer, pH 7, 25±2°C, 72 hr. after): 0.79%
Peak area ratio to total peak area ([3]; human ghrelin 0.5 mg/mL in Mcllvain buffer, pH 7, 25±2°C, before storage): 0.22%
Peak area ratio to total peak area ([3]; human ghrelin 0.5 mg/mL in Mcllvain buffer, pH 8, 25±2°C, 8 hr. after): 0.68%
Peak area ratio to total peak area ([3]; human ghrelin 0.5 mg/mL in Mcllvain buffer, pH 8, 25±2°C, 24 hr. after): 1.39%
Peak area ratio to total peak area ([3]; human ghrelin 0.5 mg/mL in Mcllvain buffer, pH 8, 25±2°C, 48 hr. after): 2.39%
Peak area ratio to total peak area ([3]; human ghrelin 0.5 mg/mL in Mcllvain buffer, pH 8, 25±2°C, 72 hr. after): 3.12%
Peak area ratio to total peak area ([3]; human ghrelin 0.5 mg/mL in Mcllvain buffer, pH 8, 25±2°C, before storage): 0.24%
